ChEMBL document CHEMBL4765454, “Betulinic acid derived amides are highly cytotoxic, apoptotic and selective” (Eur J Med Chem, 2020)

Key:
A2780 = test: Cytotoxicity against human A2780 cells assessed as reduction in cell viability incubated for 72 hrs by SRB assay; assay type: functional, cell-based
A-375 = test: Cytotoxicity against human A-375 cells assessed as reduction in cell viability incubated for 72 hrs by SRB assay; assay type: functional, cell-based
[1] = Selectivity ratio of EC50 for mouse NIH3T3 cells to EC50 for human A2780 cells; assay type: toxicity; conditions: NIH3T3 cells versus A2780 cells, read-out: Ratio EC50
[2] = Selectivity ratio of EC50 for mouse NIH3T3 cells to EC50 for human FaDu cells
FaDu = test: Cytotoxicity against human FaDu cells assessed as reduction in cell viability incubated for 72 hrs by SRB assay; assay type: functional, cell-based
MCF7 = test: Cytotoxicity against human MCF7 cells assessed as reduction in cell viability incubated for 72 hrs by SRB assay; assay type: functional, cell-based
[3] = Selectivity ratio of EC50 for mouse NIH3T3 cells to EC50 for human MCF7 cells; assay type: toxicity; conditions: NIH3T3 cells versus MCF7 cells, read-out: Ratio EC50
HT-29 = test: Cytotoxicity against human HT-29 cells assessed as reduction in cell viability incubated for 72 hrs by SRB assay; assay type: functional, cell-based
[4] = Selectivity ratio of EC50 for mouse NIH3T3 cells to EC50 for human HT-29 cells; assay type: toxicity; conditions: NIH3T3 cells versus HT-29 cells, read-out: Ratio EC50
NIH3T3 = test: Cytotoxicity against mouse NIH3T3 cells assessed as reduction in cell viability incubated for 72 hrs by SRB assay; assay type: cell-based
[5] = Selectivity ratio of EC50 for mouse NIH3T3 cells to EC50 for human A375 cells; assay type: toxicity; conditions: NIH3T3 cells versus A375 cells, read-out: Ratio EC50
[6] = Homo sapiens, A2780, 72 h, read-out: EC50
[7] = Homo sapiens, A-375, 72 h, read-out: EC50
[8] = Homo sapiens, FaDu, 72 h, read-out: EC50
[9] = Homo sapiens, MCF7, 72 h, read-out: EC50
[10] = Homo sapiens, HT-29, 72 h, read-out: EC50
[11] = Mus musculus, NIH3T3, 72 h, read-out: EC50

Row | SMILES | EC50 (A2780; [6]) [µM] | EC50 (A-375; [7]) [µM] | selectivity ratio [1] | Ratio EC50 [2] | EC50 (FaDu; [8]) [µM] | EC50 (MCF7; [9]) [µM] | selectivity ratio [3] | EC50 (HT-29; [10]) [µM] | selectivity ratio [4] | EC50 (NIH3T3; [11]) [µM] | EC50 (A2780; a2780) | EC50 (A-375; a-375) | EC50 (FaDu; fadu) | EC50 (MCF7; mcf7) | EC50 (HT-29; ht-29) | EC50 (NIH3T3; nih3t3) | selectivity ratio [5]
1 | C=C(C)[C@@H]1CC[C@]2(C(=O)Nc3cncc4ccccc34)CC[C@]3(C)[C@H](CC[C@@H]4[C@@]5(C)C[C@H](OC(C)=O)[C@H](OC(C)=O)C(C)(C)[C@@H]5CC[C@]43C)[C@@H]12 | 4.76 | 3.34 | 6.3 | 7.5 | 4.02 | 7.33 | 4.1 | > 15 | 2 | > 30 |  |  |  |  |  |  | 
2 | CC(=O)O[C@H]1C[C@]2(C)[C@H]3CC[C@@H]4[C@H]5[C@H](C(C)=O)CC[C@]5(C(=O)Nc5cncc6ccccc56)CC[C@@]4(C)[C@]3(C)CC[C@H]2C(C)(C)[C@H]1OC(C)=O | 6.15 | 4.88 | 4.9 | 4.7 | 6.41 | 6.96 | 4.3 | 18.4 | 1.6 | > 30 |  |  |  |  |  |  | 
3 | COc1cccc2c1C(=O)c1c(O)c3c(c(O)c1C2=O)C[C@@](O)(C(=O)CO)C[C@@H]3O[C@H]1C[C@H](N)[C@H](O)[C@H](C)O1 [DOXORUBICIN] |  |  |  |  |  |  |  | > 30 |  | 1.3 |  |  |  |  |  |  | 
4 | CC(=O)O[C@H]1C[C@]2(C)[C@H]3CC[C@@H]4[C@H]5[C@H](C(C)=O)CC[C@]5(C(=O)Nc5cccc6ncccc56)CC[C@@]4(C)[C@]3(C)CC[C@H]2C(C)(C)[C@H]1OC(C)=O |  |  |  |  |  |  |  |  |  |  | Nd(Insoluble) | Nd(Insoluble) | Nd(Insoluble) | Nd(Insoluble) | Nd(Insoluble) | Nd(Insoluble) | 
5 | CC(=O)[C@@H]1CC[C@]2(C(=O)O)CC[C@]3(C)[C@H](CC[C@@H]4[C@@]5(C)C[C@H](O)[C@H](O)C(C)(C)[C@@H]5CC[C@]43C)[C@@H]12 | > 30 | > 30 |  |  | > 30 | > 30 |  | > 30 |  | > 30 |  |  |  |  |  |  | 
6 | CC(=O)[C@@H]1CC[C@]2(C(=O)O)CC[C@]3(C)[C@H](CC[C@@H]4[C@@]5(C)CC[C@H](O)C(C)(C)[C@@H]5CC[C@]43C)[C@@H]12 [PLATANIC ACID] | > 30 | > 30 |  |  | > 30 | > 30 |  | > 30 |  | > 30 |  |  |  |  |  |  | 
7 | C=C(C)[C@@H]1CC[C@]2(C(=O)Nc3cccc4ncccc34)CC[C@]3(C)[C@H](CC[C@@H]4[C@@]5(C)CC[C@H](OC(C)=O)C(C)(C)[C@@H]5CC[C@]43C)[C@@H]12 | 5.08 | 3.05 | 5.9 | 5.8 | 5.18 | 12.1 | 2.5 | > 30 | 1 | > 30 |  |  |  |  |  |  | 
8 | C=C(C)[C@@H]1CC[C@]2(C(=O)NCc3ccccc3)CC[C@]3(C)[C@H](CC[C@@H]4[C@@]5(C)CC[C@H](OC(C)=O)C(C)(C)[C@@H]5CC[C@]43C)[C@@H]12 | 6.29 | 4.05 | 4.8 | 3.1 | 9.59 | 26.8 | 1.1 | > 30 | 1 | > 30 |  |  |  |  |  |  | 
9 | C=C(C)[C@@H]1CC[C@]2(C(=O)O)CC[C@]3(C)[C@H](CC[C@@H]4[C@@]5(C)CC[C@H](O)C(C)(C)[C@@H]5CC[C@]43C)[C@@H]12 [BETULINIC ACID] | > 30 | > 30 |  |  | > 30 | > 30 |  | > 30 |  | > 30 |  |  |  |  |  |  | 
10 | CC(=O)O[C@H]1CC[C@]2(C)[C@H]3CC[C@@H]4[C@H]5[C@H](C(C)=O)CC[C@]5(C(=O)Nc5cccc6ncccc56)CC[C@@]4(C)[C@]3(C)CC[C@H]2C1(C)C | 5.4 | 4.6 | 5.6 | 4.7 | 6.42 | 7.06 | 4.3 | > 30 | 1 | > 30 |  |  |  |  |  |  | 
11 | CC(=O)O[C@H]1CC[C@]2(C)[C@H]3CC[C@@H]4[C@H]5[C@H](C(C)=O)CC[C@]5(C(=O)O)CC[C@@]4(C)[C@]3(C)CC[C@H]2C1(C)C | > 30 | > 30 |  |  | > 30 | > 30 |  | > 30 |  | > 30 |  |  |  |  |  |  | 
12 | CC(=O)O[C@H]1C[C@]2(C)[C@H]3CC[C@@H]4[C@H]5[C@H](C(C)=O)CC[C@]5(C(=O)NCc5ccccc5)CC[C@@]4(C)[C@]3(C)CC[C@H]2C(C)(C)[C@H]1OC(C)=O | 2.36 | 2.9 | 12.7 | 5.4 | 5.57 | 5.2 | 5.8 | 7.22 | 4.2 | > 30 |  |  |  |  |  |  | 
13 | CC(=O)O[C@H]1CC[C@]2(C)[C@H]3CC[C@@H]4[C@H]5[C@H](C(C)=O)CC[C@]5(C(=O)NCc5ccccc5)CC[C@@]4(C)[C@]3(C)CC[C@H]2C1(C)C |  |  |  |  |  |  |  |  |  |  | Nd(Insoluble) | Nd(Insoluble) | Nd(Insoluble) | Nd(Insoluble) | Nd(Insoluble) | Nd(Insoluble) | 
14 | CC(=O)[C@@H]1CC[C@]2(C(=O)O)CC[C@]3(C)[C@H](CC[C@@H]4[C@@]5(C)C=C(O)C(=O)C(C)(C)[C@@H]5CC[C@]43C)[C@@H]12 | 20.6 | > 30 |  |  | > 30 | 24.8 |  | > 30 |  | > 30 |  |  |  |  |  |  | 
15 | CC(=O)O[C@H]1CC[C@]2(C)[C@H]3CC[C@@H]4[C@H]5[C@H](C(C)=O)CC[C@]5(C(=O)Nc5cncc6ccccc56)CC[C@@]4(C)[C@]3(C)CC[C@H]2C1(C)C | 7.84 | 5.66 | 3.8 | 3.9 | 7.67 | 9.34 | 3.2 | > 30 | 1 | > 30 |  |  |  |  |  |  | 
16 | C=C(C)[C@@H]1CC[C@]2(C(=O)O)CC[C@]3(C)[C@H](CC[C@@H]4[C@@]5(C)CCC(=O)C(C)(C)[C@@H]5CC[C@]43C)[C@@H]12 [BETUNOLIC ACID] | 4.7 | 14.3 |  |  | 17.4 | 12 |  | 18.5 |  | 19.4 |  |  |  |  |  |  | 
17 | C=C(C)[C@@H]1CC[C@]2(C(=O)O)CC[C@]3(C)[C@H](CC[C@@H]4[C@@]5(C)CC[C@H](OC(C)=O)C(C)(C)[C@@H]5CC[C@]43C)[C@@H]12 |  | 19.2 | 1.6 | 4.2 | 7.2 |  | 2.7 | 21.3 | 1.4 | > 30 |  |  |  |  |  |  | 1.6
18 | CC(=O)[C@@H]1CC[C@]2(C(=O)O)CC[C@]3(C)[C@H](CC[C@@H]4[C@@]5(C)CCC(=O)C(C)(C)[C@@H]5CC[C@]43C)[C@@H]12 | > 30 | > 30 |  |  | > 30 | > 30 |  | > 30 |  | > 30 |  |  |  |  |  |  | 
